{
  "source": "BindingDB's records for doi:10.1016/S0960-894X(00)80062-1",
  "about": "(1994)",
  "target": "Squalene synthase (Candida albicans)",
  "assay": "In vitro inhibitory activity against Candida albicans squalene synthase",
  "data": [
    {"molecule": "C=C(CCC12CCC(C(=O)O)(O1)C(O)(C(=O)O)C(C(=O)O)O2)[C@@H](OC(C)=O)[C@H](C)Cc1ccccc1", "note": "(stereo partly drawn) [1-((4S,5R)-4-Acetoxy-5-methyl-3-methylene-6-phenyl-hexyl)-4-hydroxy-2,8-dioxa-bicyclo[3.2.1]octane-3,4,5-tricarboxylic acid]", "values": [
      {"measurement": "IC50", "value": 430, "unit": "nM"}
    ]}
  ]
}
